Measurements published in patent US12590106B2, “Spiromacrocyclic orexin 2 receptor agonists” (H. Lundbeck A/S, priority 2023, dated 2026).
pEC50: −log10 of the molar value.

Biological target: T1, human Ox2R (Homo sapiens, UniProt O43614)
T1 construct: The gene encoding hOx2R was subcloned into the expression plasmid pcDNA5/FRT/TO; expressed in transfected cells; host or cells: CHO Flp-In cells (pcDNA5/FRT/TO with pOG44 Flp recombinase vector, hygromycin B selection)
T1 sequence (O43614 1-444): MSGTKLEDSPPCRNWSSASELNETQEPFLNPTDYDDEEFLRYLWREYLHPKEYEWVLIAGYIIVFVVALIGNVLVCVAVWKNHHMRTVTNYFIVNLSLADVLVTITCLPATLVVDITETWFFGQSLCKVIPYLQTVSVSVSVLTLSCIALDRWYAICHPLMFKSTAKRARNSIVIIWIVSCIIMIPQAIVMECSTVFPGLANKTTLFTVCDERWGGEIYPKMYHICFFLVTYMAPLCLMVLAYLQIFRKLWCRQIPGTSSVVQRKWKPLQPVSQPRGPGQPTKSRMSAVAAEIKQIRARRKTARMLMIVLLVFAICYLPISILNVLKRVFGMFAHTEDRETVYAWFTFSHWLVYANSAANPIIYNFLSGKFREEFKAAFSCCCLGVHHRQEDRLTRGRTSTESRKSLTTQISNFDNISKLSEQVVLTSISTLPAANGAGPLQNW
Assay: Measurement of OX2R agonist activity (cell-based calcium release assay)
Details: hOx2R-CHO Flp-In cells, n≥2 tests; for pEC50: intracellular calcium, read-out: EC50; for Emax / Emax (%): normalized to assay buffer (0%) and 10 μM Danavorexton (100%); for Emax: read-out: Emax (%)
In short: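 CHO Flp-In cells stably expressing human Ox2R, dye-loaded 1 h at 37 °C in HBSS/20 mM HEPES pH 7.4 with 2.5 mM probenecid and 10 mM CaCl2, then stimulated with compound.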

| pEC50 | Emax [%] | Compound | Emax (%) |
| --- | --- | --- | --- |
| 7.70 | 100 | O=S(=O)(N[C@H]1CC[C@@]2(Cc3cccc(c3)-c3cccc(F)c3OCc3coc2n3)C1)C1CCOC1 (stereo partly drawn) [Example 79, N-[(1′S,14R)-6-fluorospiro[8,12-dioxa-21-azatetracyclo[14.3.1.110,13.02,7]henicosa-1(19),2,4,6,10,13(21),16(20),17-octaene-14,3′-cyclopentane]-1′-yl]tetrahydrofuran-3-sulfonamide] | – |
| 9.01 | 99 | C[C@@H]1Oc2c(F)cccc2-c2cc(ccc2F)C[C@@]2(CC[C@H](NS(C)(=O)=O)C2)c2nc1co2 [Example 3, N-[(1′S,9S,14R)-6,19-difluoro-9-methyl-spiro[8,12-dioxa-21-azatetracyclo[14.3.1.110,13.02,7]henicosa-1(19),2(7),3,5,10,13(21),16(20),17-octaene-14,3′-cyclopentane]-1′-yl]methanesulfonamide] | – |
| 8.89 | 94 | CS(=O)(=O)N[C@H]1CC[C@@]2(Cc3ccc(F)c(c3)-c3cccc(F)c3OCc3noc2n3)C1 [Example 112, N-[(1′S,14R)-6,19-difluorospiro[8,12-dioxa-11,21-diazatetracyclo[14.3.1.110,13.02,7]henicosa-1(20),2,4,6,10,13(21),16,18-octaene-14,3′-cyclopentane]-1′-yl]methanesulfonamide] | – |
| 8.82 | 100 | CS(=O)(=O)N[C@H]1CC[C@@]2(Cc3cc(ccc3F)-c3ccccc3OCc3coc2n3)C1 [Example 10, N-[(1′S,14R)-17-fluorospiro[8,12-dioxa-21-azatetracyclo[14.3.1.110,13.02,7]henicosa-1(19),2,4,6,10,13(21),16(20),17-octaene-14,3′-cyclopentane]-1′-yl]methanesulfonamide] | – |
| 9.03 | 98 | CS(=O)(=O)N[C@H]1CC[C@@]2(CO[C@H]3CC[C@H](CC3)c3cccc(c3)OCc3cnc2o3)C1 [Example 73, N-[(1s,1′S,13S,16s)-spiro[7,15,21-trioxa-11-azatetracyclo[14.2.2.12,6.19,12]docosa-2,4,6(22),9,11-pentaene-13,3′-cyclopentane]-1′-yl]methanesulfonamide] | – |
| 9.60 | 100 | CCS(=O)(=O)N[C@H]1CC[C@@]2(Cc3cc(c(F)cc3F)-c3cccc(F)c3OCc3coc2n3)C1 [Example 84, N-[(1′S,14R)-6,17,19-trifluorospiro[8,12-dioxa-21-azatetracyclo[14.3.1.110,13.02,7]henicosa-1(19),2,4,6,10,13(21),16(20),17-octaene-14,3′-cyclopentane]-1′-yl]ethanesulfonamide] | – |
| 8.28 | 98 | CS(=O)(=O)N[C@H]1CC[C@@]2(Cc3ccc(C(F)(F)F)c(c3)-c3ccccc3OCc3coc2n3)C1 [Example 24, N-[(1′S,14R)-19-(trifluoromethyl)spiro[8,12-dioxa-21-azatetracyclo[14.3.1.110,13.02,7]henicosa-1(19),2,4,6,10,13(21),16(20),17-octaene-14,3′-cyclopentane]-1′-yl]methanesulfonamide] | – |
| 9.96 | 100 | [2H]C1([2H])Oc2c(F)cccc2-c2cc(ccc2F)C[C@@]2(CC[C@H](NS(C)(=O)=O)C2)c2nc1co2 [Example 6, N-[(1′S,14R)-9,9-dideuterio-6,19-difluoro-spiro[8,12-dioxa-21-azatetracyclo[14.3.1.110,13.02,7]henicosa-1(19),2,4,6,10,13(21),16(20),17-octaene-14,3′-cyclopentane]-1′-yl]methanesulfonamide] | – |
| 9.64 | 98 | CS(=O)(=O)N[C@H]1CC[C@]2(CC1)Cc1cc(c(F)cc1F)-c1cccc(F)c1OCc1coc2n1 [Example 96, trans-N-(6,17,19-trifluorospiro[8,12-dioxa-21-azatetracyclo[14.3.1.110,13.02,7]henicosa-1(19),2,4,6,10,13(21),16(20),17-octaene-14,4′-cyclohexane]-1′-yl)methanesulfonamide] | – |
| 8.37 | 99 | CS(=O)(=O)N[C@H]1CC[C@@]2(Cc3cccc(c3)-c3ccccc3OCc3coc2n3)C1 [Example 38, N-[(1′S,14R)-spiro[8,12-dioxa-21-azatetracyclo[14.3.1.110,13.02,7]henicosa-1(20),2,4,6,10,13(21),16,18-octaene-14,3′-cyclopentane]-1′-yl]methanesulfonamide] | – |
| 7.80 | 110 | CS(=O)(=O)N[C@H]1CC[C@@]2(Cc3ccc(F)c(c3)-c3ccc(F)cc3OCc3ccnc2n3)C1 [Example 92, N-[(1′S,15R)-5,20-difluorospiro[8-oxa-13,22-diazatetracyclo[15.3.1.110,14.02,7]docosa-1(20),2,4,6,10,12,14(22),17(21),18-nonaene-15,3′-cyclopentane]-1′-yl]methanesulfonamide] | – |
| 9.28 | 96 | CS(=O)(=O)N[C@@H]1C[C@]2(Cc3ccc(F)c(c3)-c3cc(F)cc(F)c3OCc3ccnc2n3)[C@H]2C[C@@H]12 [Example 119, N-[(1′R,2′R,5′S,15R)-4,6,20-trifluorospiro[8-oxa-13,22-diazatetracyclo[15.3.1.110,14.02,7]docosa-1(21),2,4,6,10,12,14(22),17,19-nonaene-15,4′-bicyclo[3.1.0]hexane]-2′-yl]methanesulfonamide] | – |
| 9.55 | 95 | CN(C)S(=O)(=O)N[C@H]1CC[C@@]2(Cc3ccc(F)c(c3)-c3ccccc3OCc3coc2n3)C1 [Example 13, (3′S,14R)-3′-(dimethylsulfamoylamino)-19-fluoro-spiro[8,12-dioxa-21-azatetracyclo[14.3.1.110,13.02,7]henicosa-1(19),2,4,6,10,13(21),16(20),17-octaene-14,1′-cyclopentane]] | – |
| 8.07 | 96 | CS(=O)(=O)N[C@H]1CC[C@@]2(Cc3cccc(c3)-c3cccc(n3)OCc3coc2n3)C1 [Example 47, N-[(1′S,13R)-spiro[7,11-dioxa-20,21-diazatetracyclo[13.3.1.12,6.19,12]henicosa-1(19),2,4,6(21),9,12(20),15,17-octaene-13,3′-cyclopentane]-1′-yl]methanesulfonamide] | – |
| 8.48 | 96 | CS(=O)(=O)N[C@@H]1CC[C@]2(Cc3ccc(F)c(c3)-c3cccc(F)c3OCc3coc2n3)C1 [Example 99, N-[(1′R,14S)-6,19-difluorospiro[8,12-dioxa-21-azatetracyclo[14.3.1.110,13.02,7]henicosa-1(19),2,4,6,10,13(21),16(20),17-octaene-14,3′-cyclopentane]-1′-yl]methanesulfonamide] | – |
| 9.48 | 97 | CS(=O)(=O)N[C@H]1CC[C@@]2(Cc3ccc(F)c(c3)-c3cccc(Cl)c3OCc3coc2n3)C1 [Example 20, N-[(1′S,14R)-6-chloro-19-fluoro-spiro[8,12-dioxa-21-azatetracyclo[14.3.1.110,13.02,7]henicosa-1(19),2,4,6,10,13(21),16(20),17-octaene-14,3′-cyclopentane]-1′-yl]methanesulfonamide] | – |
| 9.10 | 98 | O=S(=O)(N[C@H]1CC[C@@]2(Cc3ccc(F)c(c3)-c3ccc(F)c(F)c3OCc3coc2n3)C1)C1CC1 [Example 34, N-[(1′S,14R)-5,6,19-trifluorospiro[8,12-dioxa-21-azatetracyclo[14.3.1.110,13.02,7]henicosa-1(19),2,4,6,10,13(21),16(20),17-octaene-14,3′-cyclopentane]-1′-yl]cyclopropanesulfonamide] | – |
| 9.27 | 99 | CS(=O)(=O)N[C@H]1CC[C@@]2(Cc3cccc(c3)-c3cccc(F)c3OCc3coc2n3)C1 [Example 44, N-[(1′S,14R)-6-fluorospiro[8,12-dioxa-21-azatetracyclo[14.3.1.110,13.02,7]henicosa-1(19),2,4,6,10,13(21),16(20),17-octaene-14,3′-cyclopentane]-1′-yl]methanesulfonamide] | – |

| Compound | pEC50 | Emax [%] | Emax (%) |
| --- | --- | --- | --- |
| N-[(3′R,14S)-6,17,19-trifluorospiro[8,12-dioxa-21-azatetracyclo[14.3.1.110,13.02,7]henicosa-1(19),2,4,6,10,13(21),16(20),17-octaene-1′,5′-tetrahydrofuran′-3′-yl]methanesulfonamide or N-[(3′S,14R)-6,17,19-trifluorospiro[8,12-dioxa-21-azatetracyclo[14.3.1.110,13.02,7]henicosa-1(19),2,4,6,10,13(21),16(20),17-octaene-1′,5′-tetrahydrofuran′-3′-yl]methanesulfonamide [Example 110] | 9.49 | – | 96 |
| N-[(1′S,4′S,15R)-6,20-difluoro-4′-methyl-spiro[8-oxa-13,22-diazatetracyclo[15.3.1.110,14.02,7]docosa-1(20),2,4,6,10,12,14(22),17(21),18-nonaene-15,3′-cyclopentane]-1′-yl]methanesulfonamide or N-[(1′R,4′R,15S)-6,20-difluoro-4′-methyl-spiro[8-oxa-13,22-diazatetracyclo[15.3.1.110,14.02,7]docosa-1(20),2,4,6,10,12,14(22),17(21),18-nonaene-15,3′-cyclopentane]-1′-yl]methanesulfonamide [Example 93] | 8.51 | – | 94 |
